# Results as given in patent publication US11084829B2, “Ubiquitin-specific-processing protease 7 (USP7) modulators and uses thereof” (RAPT THERAPEUTICS, INC., priority 2018, dated 2021).
# Target: USP7 (Homo sapiens, UniProt Q93009)
# Assay: USP7 inhibitory potency (IC50)
# Assay type: biochemical
# Protocol: Activity for compounds described herein is provided in Table 2, wherein potency levels are provided as follows: (Potency: USP7 IC50: A<0.01 μM; B=0.01-0.1 μM; C=>0.1 μM.
# Sequence of USP7 (Q93009 whole entry): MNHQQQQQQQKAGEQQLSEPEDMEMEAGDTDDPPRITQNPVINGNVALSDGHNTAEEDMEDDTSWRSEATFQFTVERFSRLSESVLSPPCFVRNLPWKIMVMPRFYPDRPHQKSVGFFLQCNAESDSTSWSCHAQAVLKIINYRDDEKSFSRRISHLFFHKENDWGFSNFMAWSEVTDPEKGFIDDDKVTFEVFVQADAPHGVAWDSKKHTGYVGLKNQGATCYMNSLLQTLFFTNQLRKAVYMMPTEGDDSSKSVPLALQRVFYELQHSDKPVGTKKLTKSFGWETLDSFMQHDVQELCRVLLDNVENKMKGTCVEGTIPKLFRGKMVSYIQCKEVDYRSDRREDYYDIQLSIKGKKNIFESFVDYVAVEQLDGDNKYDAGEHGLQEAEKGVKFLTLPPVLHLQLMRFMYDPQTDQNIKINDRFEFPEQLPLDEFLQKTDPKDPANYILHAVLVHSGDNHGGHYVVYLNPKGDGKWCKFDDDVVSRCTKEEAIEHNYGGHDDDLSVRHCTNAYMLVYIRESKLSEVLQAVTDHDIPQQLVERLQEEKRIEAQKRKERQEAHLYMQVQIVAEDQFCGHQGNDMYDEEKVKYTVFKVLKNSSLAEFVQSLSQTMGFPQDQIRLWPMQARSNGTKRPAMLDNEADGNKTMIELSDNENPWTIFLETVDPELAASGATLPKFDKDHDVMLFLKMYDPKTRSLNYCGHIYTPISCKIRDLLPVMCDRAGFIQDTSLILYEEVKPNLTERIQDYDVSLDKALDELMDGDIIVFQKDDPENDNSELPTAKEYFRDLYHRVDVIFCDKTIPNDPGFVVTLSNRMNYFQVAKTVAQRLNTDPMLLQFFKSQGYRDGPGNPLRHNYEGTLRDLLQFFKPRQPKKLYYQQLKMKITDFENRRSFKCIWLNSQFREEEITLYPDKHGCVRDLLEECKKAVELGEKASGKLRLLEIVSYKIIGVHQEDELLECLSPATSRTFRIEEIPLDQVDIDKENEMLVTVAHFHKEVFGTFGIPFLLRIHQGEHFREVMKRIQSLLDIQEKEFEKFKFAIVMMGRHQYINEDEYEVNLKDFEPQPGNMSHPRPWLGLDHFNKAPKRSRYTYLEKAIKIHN
row,IC50 [nM],SMILES
1,10 to 100,"Cc1cc(Cl)cc(-c2ncnc3cc(CN4C(=O)C5C(C4=O)C5(C)C)sc23)c1CC1(C)CNCCO1 (stereo not shown) [Example 157, 3-((4-(5-chloro-3-methyl-2-((2-methylmorpholin-2-yl)methyl)phenyl)thieno[3,2-d]pyrimidin-6-yl)methyl)-6,6-dimethyl-3-azabicyclo[3.1.0]hexane-2,4-dione]"
2,> 100,"Cc1cc(Cl)cc(-c2ncnc3cc(CN4C(=O)C5CC5C4=O)sc23)c1C[C@H]1CN(C(=O)C(F)(F)F)CCO1 (stereo partly drawn) [Example 198, 3-((4-(5-chloro-3-methyl-2-(((S)-4-(2,2,2-trifluoroacetyl)morpholin-2-yl)methyl)phenyl)thieno[3,2-d]pyrimidin-6-yl)methyl)-3-azabicyclo[3.1.0]hexane-2,4-dione]"
3,< 10,"Cc1cc(Cl)cc(-c2ccnc3cc(CN4C(=O)C5C(C4=O)C5(C)C)sc23)c1CC1CNCC(C)(C)O1 (stereo not shown) [Example 97, 3-((7-(5-chloro-2-((6,6-dimethylmorpholin-2-yl)methyl)-3-methylphenyl)thieno[3,2-b]pyridin-2-yl)methyl)-6,6-dimethyl-3-azabicyclo[3.1.0]hexane-2,4-dione]"
4,< 10,"Cc1cc(Cl)cc(-c2ccnc3cc(CN4C(=O)C5CC5C4=O)sc23)c1CC1CNCCO1 (stereo not shown) [Example 102, 3-((7-(5-chloro-3-methyl-2-(morpholin-2-ylmethyl)phenyl)thieno[3,2-b]pyridin-2-yl)methyl)-3-azabicyclo[3.1.0]hexane-2,4-dione]"
5,10 to 100,"Cc1cc(Cl)cc(-c2ncnc3cc(CN4C(=O)CCC4C)sc23)c1C[C@@H]1CNCC(C)(C)O1 (stereo partly drawn) [Example 241, 1-((4-(5-chloro-2-(((R)-6,6-dimethylmorpholin-2-yl)methyl)-3-methylphenyl)thieno[3,2-d]pyrimidin-6-yl)methyl)-5-methylpyrrolidin-2-one]"
6,10 to 100,"C[C@H]1CNCCN1Cc1c(F)cc(Cl)cc1-c1ncnc2cc(CN3C(=O)C4CC4C3=O)sc12 (stereo partly drawn) [Example 61, 3-((4-(5-chloro-3-fluoro-2-(((S)-2-methylpiperazin-1-yl)methyl)phenyl)thieno[3,2-d]pyrimidin-6-yl)methyl)-3-azabicyclo[3.1.0]hexane-2,4-dione]"
7,< 10,"C[C@@H]1CN(Cc2c(Cl)cc(Cl)cc2-c2ncnc3cc(CN4C(=O)C5CC5C4=O)sc23)[C@@H](C)CN1 (stereo partly drawn) [Example 75, 3-((4-(3,5-dichloro-2-(((2S,5R)-2,5-dimethylpiperazin-1-yl)methyl)phenyl)thieno[3,2-d]pyrimidin-6-yl)methyl)-3-azabicyclo[3.1.0]hexane-2,4-dione]"
8,> 100,"Cc1cc(C)c(CN2CCNC[C@@H]2C)c(-c2ncnc3cc(CN4C(=O)C5CC5C4=O)sc23)c1 (stereo partly drawn) [Example 71, 3-((4-(3,5-dimethyl-2-(((S)-2-methylpiperazin-1-yl)methyl)phenyl)thieno[3,2-d]pyrimidin-6-yl)methyl)-3-azabicyclo[3.1.0]hexane-2,4-dione]"
9,< 10,"CN1CCC(=O)N(Cc2cc3nccc(-c4cc(Cl)cc(Cl)c4CC4CNCC(C)(C)O4)c3s2)C1=O (stereo not shown) [Example 135, 3-((7-(3,5-dichloro-2-((6,6-dimethylmorpholin-2-yl)methyl)phenyl)thieno[3,2-b]pyridin-2-yl)methyl)-1-methyldihydropyrimidine-2,4(1H,3H)-dione]"
10,< 10,"Cc1cc(Cl)cc(-c2ncnc3cc(CN4C(=O)CCN(CC(F)(F)F)C4=O)sc23)c1CN1[C@@H](C)CNC[C@@H]1C [Example 260, 3-((4-(5-chloro-2-(((2S,6S)-2,6-dimethylpiperazin-1-yl)methyl)-3-methylphenyl)thieno[3,2-d]pyrimidin-6-yl)methyl)-1-(2,2,2-trifluoroethyl)dihydropyrimidine-2,4(1H,3H)-dione]"
11,< 10,"C[C@H]1CNC[C@H](C)N1Cc1c(Cl)cc(Cl)cc1-c1ccnc2cc(CN3C(=O)C4CC4C3=O)sc12 (stereo partly drawn) [Example 47, 3-((7-(3,5-dichloro-2-(((2S,6S)-2,6-dimethylpiperazin-1-yl)methyl)phenyl)thieno[3,2-b]pyridin-2-yl)methyl)-3-azabicyclo[3.1.0]hexane-2,4-dione]"
12,10 to 100,"Cc1cc(C#N)cc(-c2ncnc3cc(CN4C(=O)C5CC5C4=O)sc23)c1CN1CCNC[C@@H]1C (stereo partly drawn) [Example 60, 3-(6-((2,4-dioxo-3-azabicyclo[3.1.0]hexan-3-yl)methyl)thieno[3,2-d]pyrimidin-4-yl)-5-methyl-4-(((S)-2-methylpiperazin-1-yl)methyl)benzonitrile]"
13,< 10,"Cc1cc(Cl)cc(-c2ccnc3cc(CN4C(=O)C5CC5C4=O)sc23)c1C[C@@H]1CNCCO1 (stereo partly drawn) [Example 123, 3-((7-(5-chloro-3-methyl-2-(((R)-morpholin-2-yl)methyl)phenyl)thieno[3,2-b]pyridin-2-yl)methyl)-3-azabicyclo[3.1.0]hexane-2,4-dione]"
14,< 10,"Cc1cc(Cl)cc(-c2ccnc3cc(CN4C(=O)C5CC5C4=O)sc23)c1C[C@H]1OCCN[C@H]1C (stereo partly drawn) [Example 106, 3-((7-(5-chloro-3-methyl-2-(((2R,3 S)-3-methylmorpholin-2-yl)methyl)phenyl)thieno[3,2-b]pyridin-2-yl)methyl)-3-azabicyclo[3.1.0]hexane-2,4-dione]"
15,> 100,"Cc1cc(Cl)cc(-c2ncnc3cc(CN4CCCC4=O)sc23)c1CC1CNCCO1 (stereo not shown) [Example 174, 1-((4-(5-chloro-3-methyl-2-(morpholin-2-ylmethyl)phenyl)thieno[3,2-d]pyrimidin-6-yl)methyl)pyrrolidin-2-one]"
16,< 10,"Cc1cc(Cl)cc(-c2ccnc3cc([C@H](C)N4C(=O)C5C(C4=O)C5(C)C)sc23)c1C[C@@H]1CNCCO1 (stereo partly drawn) [Example 133, 3-((S)-1-(7-(5-chloro-3-methyl-2-(((R)-morpholin-2-yl)methyl)phenyl)thieno[3,2-b]pyridin-2-yl)ethyl)-6,6-dimethyl-3-azabicyclo[3.1.0]hexane-2,4-dione]"
17,< 10,"Cc1cc(Cl)cc(-c2ncnc3cc(CN4C(=O)CN(C)C4=O)sc23)c1CC1CNCC(C)(C)O1 (stereo not shown) [Example 183, 3-((4-(5-chloro-2-((6,6-dimethylmorpholin-2-yl)methyl)-3-methylphenyl)thieno[3,2-d]pyrimidin-6-yl)methyl)-1-methylimidazolidine-2,4-dione]"
18,< 10,"Cc1cc(Cl)cc(-c2ccnc3cc(CN4C(=O)CN(C)C4=O)sc23)c1CC1CNCC(C)(C)O1 (stereo not shown) [Example 121, 3-((7-(5-chloro-2-((6,6-dimethylmorpholin-2-yl)methyl)-3-methylphenyl)thieno[3,2-b]pyridin-2-yl)methyl)-1-methylimidazolidine-2,4-dione]"
19,10 to 100,"Cc1cc(Cl)cc(-c2ncnc3cc(CN4C(=O)CC[C@@H]4CO)sc23)c1CC1CNCC(C)(C)O1 (stereo partly drawn) [Example 206, (5R)-1-((4-(5-chloro-2-((6,6-dimethylmorpholin-2-yl)methyl)-3-methylphenyl)thieno[3,2-d]pyrimidin-6-yl)methyl)-5-(hydroxymethyl)pyrrolidin-2-one]"
20,< 10,"Cc1cc(Cl)cc(-c2ncnc3cc(CN4C(=O)C5CC5C4=O)sc23)c1CC1CNCC2(CC2)O1 (stereo not shown) [Example 208, 3-((4-(2-((4-oxa-7-azaspiro[2.5]octan-5-yl)methyl)-5-chloro-3-methylphenyl)thieno[3,2-d]pyrimidin-6-yl)methyl)-3-azabicyclo[3.1.0]hexane-2,4-dione]"
21,< 10,"Cc1cc(Cl)cc(-c2ncnc3cc(CN4C(=O)[C@@H]5CCCN5C4=O)sc23)c1CN1[C@@H](C)CNC[C@@H]1C [Example 88, (S)-2-((4-(5-chloro-2-(((2S,6S)-2,6-dimethylpiperazin-1-yl)methyl)-3-methylphenyl)thieno[3,2-d]pyrimidin-6-yl)methyl)tetrahydro-1H-pyrrolo[1,2-c]imidazole-1,3(2H)-dione]"
22,< 10,"CC1(C)CNCC(Cc2c(Cl)cc(Cl)cc2-c2ncnc3cc(CN4C(=O)C5CC5C4=O)sc23)O1 (stereo not shown) [Example 227, 3-((4-(3,5-dichloro-2-((6,6-dimethylmorpholin-2-yl)methyl)phenyl)thieno[3,2-d]pyrimidin-6-yl)methyl)-3-azabicyclo[3.1.0]hexane-2,4-dione]"
23,< 10,"Cc1cc(Cl)cc(-c2ccnc3cc(CN4C(=O)C5C(C4=O)C5(C)C)sc23)c1CN1CCN(C)C[C@@H]1C (stereo partly drawn) [Example 23, 3-((7-(5-chloro-2-(((S)-2,4-dimethylpiperazin-1-yl)methyl)-3-methylphenyl)thieno[3,2-b]pyridin-2-yl)methyl)-6,6-dimethyl-3-azabicyclo[3.1.0]hexane-2,4-dione]"
24,10 to 100,"Cc1cc(Cl)cc(-c2ncnc3cc(CN4C(=O)C5CC5C4=O)sc23)c1CC1CNC(C)(C)CO1 (stereo not shown) [Example 158, 3-((4-(5-chloro-2-((5,5-dimethylmorpholin-2-yl)methyl)-3-methylphenyl)thieno[3,2-d]pyrimidin-6-yl)methyl)-3-azabicyclo[3.1.0]hexane-2,4-dione]"
25,10 to 100,"CC[C@H]1CNCCN1Cc1c(C)cc(Cl)cc1-c1ncnc2cc(CN3C(=O)C4C(C3=O)C4(C)C)sc12 (stereo partly drawn) [Example 52, 3-((4-(5-chloro-2-(((S)-2-ethylpiperazin-1-yl)methyl)-3-methylphenyl)thieno[3,2-d]pyrimidin-6-yl)methyl)-6,6-dimethyl-3-azabicyclo[3.1.0]hexane-2,4-dione]"
26,< 10,"Cc1cc(Cl)cc(-c2ncnc3cc(CN4C(=O)N(C)C(C)(C)C4=O)sc23)c1CC1CNCCO1 (stereo not shown) [Example 200, 3-((4-(5-chloro-3-methyl-2-(morpholin-2-ylmethyl)phenyl)thieno[3,2-d]pyrimidin-6-yl)methyl)-1,5,5-trimethylimidazolidine-2,4-dione]"
27,10 to 100,"Cc1cc(Cl)cc(-c2ncnc3cc(CN4C(=O)C5CC5C4=O)sc23)c1CC1(C)CNCCO1 (stereo not shown) [Example 156, 3-((4-(5-chloro-3-methyl-2-((2-methylmorpholin-2-yl)methyl)phenyl)thieno[3,2-d]pyrimidin-6-yl)methyl)-3-azabicyclo[3.1.0]hexane-2,4-dione]"
28,< 10,"Cc1cc(Cl)cc(-c2ccnc3cc(CN4C(=O)C5CC5C4=O)sc23)c1CC1CNCC(C)(C)O1 (stereo not shown) [Example 120, 3-((7-(5-chloro-2-((6,6-dimethylmorpholin-2-yl)methyl)-3-methylphenyl)thieno[3,2-b]pyridin-2-yl)methyl)-3-azabicyclo[3.1.0]hexane-2,4-dione]"
